# Like-named read-outs stand apart in the source and are kept apart here.
# Tests used:
# BRD4-1 [1] = target: T1, BRD4-1 (Homo sapiens, UniProt O60885); test: Biochemical HTRF (TR-FRET) assay: BRD4-1 binding to acetylated histone H4 peptide; conditions: 200 nM H4 peptide, 60 nM BRD4-1, 60 min at 25 °C; geometric mean; read-out: IC50 HTBS BRD4-1 HTRF
# T1 construct: made in house; host or cells: Escherichia coli
# Procedure: (§1) Binding of the two tandem bromodomains, BRD4 I and BRD4—2, to an acetylated histone H4 peptide were measured using a homogeneous time resolved fluorescence resonance energy transfer (TR-FRET) assay. The synthetic peptide containing amino acids 1-18 of histone H4 was acetylated at lysine 5, 8, 12, 16 and conjugated to biotin ([…]-GSGSK-biotin) was purchased from Millipore. BRD4_I and BRD4—2 were expressed and purified from Escherichia coli as N-terminal His6-tagged proteins. An XL665 labeled anti-His antibody (Cisbio) was used to specifically bind BRD4 and a cryptate labeled streptavidin protein was used because it specifically recognized the biotinylated H4 peptide. […] Assays were performed in 50 mM Hepes (pH 7.5), 150 mM NaCl, 0.1 mg/ml BSA, 0.01% (v/v) Brij, 0.5% (v/v) DMSO and 200 nM H4 peptide at the following concentrations for each BRD4 isoform: 60 nM BRD4—1 and 120 nM BRD4—2. After an assay reaction time of 60 minutes at 25° C., binding was measured with 2 nM cryptate labeled streptavidin and 10 nM anti-His-XL665 antibody. TR-FRET signal was detected on an Envision plate reader (Ex: 320 nm; Em: 615/665 nm; 100 μs delay and 200 μs read window). Data were normalized based on a positive (2 μM I-BET) and negative (DMSO) controls and IC50 values were calculated from the fit of the dose-response curves to a four-parameter equation. All IC50 values represent geometric mean values of a minimum of four determinations. These assays generally produced results within 3-fold of the reported mean.
# BRD4-2 [2] = target: T2, BRD4-2 (Homo sapiens, UniProt O60885); test: Biochemical HTRF (TR-FRET) assay: BRD4-2 binding to acetylated histone H4 peptide; conditions: 200 nM H4 peptide, 120 nM BRD4-2, 60 min at 25 °C; geometric mean; read-out: IC50 HTBS BRD4-2 HTRF
# T2 construct: made in house; host or cells: Escherichia coli
# Procedure: as §1
# [3] = MT-4 proliferation assay in 384-well format (Cell Titer Glo); type: cell-based, human; conditions: human, MT-4 cells, read-out: CC50 MT4 384
# Procedure: Compounds were tested in a standardized high-throughput 384-well assay format. Each compound was serially diluted 3-fold in 100% DMSO in polypropylene 384-well plates using a Biomek FX Workstation, and 0.4 μL compound added to an assay plate containing 40 μL RPMI media. Compounds were arranged in a horizontal pattern, with 10 concentrations per compound, and 8 compounds added per plate. Due to low DMSO tolerability, the final DMSO concentration never exceeded 0.5% (v/v). Each assay plate contained 10 μM Puromycin and 0.5% DMSO in RPMI-1640 as positive and negative controls respectively. MT-4 cells (HTLV-1 transformed, human T lymphoblastoid cells, NIH Aids Reagent program) were added in volumes of 35 μL per well and 2,000 cells per well using a Biotek uFlow Workstation (Biotek, Winooski, Vt.), and the plates subsequently incubated for 5 days at 37° C. in an incubator set at 5% CO2 and 90% humidity.
# After 5 days, 22 μL Cell Titer Glo (Promega) was added to the assay plates with a Biotek uFlow Workstation. Plates were subsequently placed on a Perkin Elmer Envision Plate Reader for 5 minutes before the luminescence signal was read. CC50 values were calculated from the compound concentration that caused a 50% decrease in luminescence signal, a measure of toxicity, and calculated by non-linear regression using Pipeline Pilot software (Accelrys, San Diego, Calif.).
# BRD4-1 [4] = target: T1, BRD4-1; test: Biochemical ALPHA assay: binding of BRD4_1 to acetylated histone H4 peptide; conditions: 200 nM H4 peptide, 15 nM BRD4_1, 60 min at 25 °C; geometric mean of min. four determinations
# Procedure: Binding of the bromodomain BRD4_I to an acetylated histone H4 peptide was measured using a bead based Amplified Luminescent Proximity Homogeneous Assay (ALPHA). The synthetic peptide containing amino acids 1-18 of histone H4 was acetylated at lysine 5, 8, 12, 16 and conjugated to biotin ([…]-GSGSK-biotin) was purchased from Millipore. BRD4_I was expressed and purified from Escherichia coli as an N-terminal Hiss-tagged protein. Nickel-Chelate ALPHA acceptor beads (Perkin Elmer) were used to specifically bind BRD4—1 and ALPHA streptavidin donor beads (Perkin Elmer) were used because they specifically recognized the biotinylated H4 peptide. […] Assays were performed in 50 mM Hepes (pH 7.5), 150 mM NaCl, 0.1 mg/ml BSA, 0.01% (v/v) Brij, 0.5% (v/v) DMSO, 200 nM H4 peptide and 15 nM of BRD4—1 protein. After an assay reaction time of 60 minutes at 25° C., binding was measured with 20 µg/ml streptavidin donor beads and 20 μg/ml nickel-chelate acceptor beads. ALPHA signal was detected on an Envision plate reader ([…]; Em: 570 nm; Ex time: 180 ms). Data were normalized based on a positive (2 μM I-BET) and negative (DMSO) controls and IC50 values were calculated from the fit of the dose-response curves to a four-parameter equation. All IC50 values represent geometric mean values of a minimum of four determinations. These assays generally produced results within 3-fold of the reported mean.
# BRD4-2 [5] = target: T2, BRD4-2; test: BRD4-2 Ligand KI assay (TR-FRET displacement of Cy5 labeled probe); type: binding; conditions: 10 nM labeled ligand, 0.5 nM BRD4-2; Ki from IC50 by Cheng and Prusoff; read-out: BRD4-2 Ligand K2
# Procedure: (§2) BRD4-I and BRD4-2 were expressed and purified from Escherichia coli as N-terminal His6-tagged proteins. A Eu-cryptate labeled anti-His antibody (Perkin Elmer) was used to specifically bind BRD4. […] Assays were performed in 50 mM Hepes (pH 7.5), 150 mM NaCl, 0.1 mg/ml BSA, 0.01% (v/v) Brij, 0.5% (v/v) DMSO and 10 nM labeled ligand at the following concentrations for each BRD4 isoform: 2 nM BRD4-1 and 0.5 nM BRD4-2. After an assay reaction time of 60 minutes at 25° C., binding was measured with 2 nM Eu-cryptate labeled anti-His antibody. TR-FRET signal was detected on an Envision plate reader (Ex: 320 nm; Em: 615/665 nm; 100 μs delay and 200 μs read window). Data were normalized based on a positive (2 μM I-BET) and negative (DMSO) controls and IC50 values were calculated from the fit of the dose-response curves to a four-parameter equation. All IC50 values represent geometric mean values of a minimum of four determinations. The IC50 values were converted to Ki values (dissociation constant for BRD4-inhibitor complex) using the Cheng and Prusoff equation for a competitive inhibitor mode of action.
# BRD4-1 [6] = target: T1, BRD4-1; test: BRD4-1 Ligand KI assay (TR-FRET displacement of Cy5 labeled probe); type: binding; conditions: 10 nM labeled ligand, 2 nM BRD4-1; Ki from IC50 by Cheng and Prusoff; read-out: BRD4-1 Ligand K1
# Procedure: Binding of the two tandem bromodomains, BRD4-I and BRD4-2, to a Cy5 labeled probe/ligand (Compound 201-A) were measured using a homogeneous time resolved fluorescence resonance energy transfer (TR-FRET) assay.
# as §2, with “The labeled ligand specifically binds BRD4-1 and BRD4-2 and can be displaced by a small molecule inhibitor that shares a similar or overlapping binding site. BRD4-I” for “BRD4-I”, “action. These assays generally produced results within 3-fold of the reported mean.” for “action.”
# [7] = system: c-Myc produced in MM1S cells; test: c-Myc down regulation assay (MSD ELISA) in MM1S cells; type: cell-based; conditions: Homo sapiens, MM1.S, 24 hrs incubation, geometric mean, read-out: cMYC EC50
# Procedure: An enzyme linked immunosorbent assay using the Meso Scale Diagnostic (MSD) technology was used to detect levels of c-Myc produced in MM1S cells (ATCC). MM1S cells were cultured in RPMI-1640 media (Corning), supplemented with 10% FBS (Hyclone), 1% penicillin-streptomycin (Cellgro), 2-mercaptoethanol (Gibco) and seeded onto 384-tissue culture treated filter binding plates (Millipore) at a density of 40K cells/well containing titrations of small molecule inhibitors or DMSO (0.4%) in a volume of 100 μl of media. After an incubation time of 24 hrs, cells were lysed (1× lysis buffer (Thermo) supplemented with protease and phosphatase inhibitor cocktail (Thermo)) and the plates centrifuged (1000 rpm, 1 min) to capture c-Myc on MSD plates coated with a monoclonal c-Myc antibody (Origene). Assay wells were washed (3× Invitrogen wash buffer) and probed with a polyclonal c-Myc antibody (Abcam) and MSD detection antibody solution in order to detect levels of c-Myc on the MSD platform. c-Myc capture was reported in pg/ml based on a standard curve using recombinant c-Myc protein (Prosci). EC50 values were calculated from the fit of the dose-response curves to a four-parameter equation. All EC50 values represent geometric mean values of a minimum of four determinations. These assays generally produced results within 3-fold of the reported mean.
# [8] = Table 1, 50% decrease in luminescence signal
# [9] = Table 2, 50% decrease in luminescence signal
Compound,IC50 (BRD4-1 [1]) [µM],IC50 (BRD4-2 [2]) [µM],IC50 (BRD4-1 [4]) [µM],Ki (BRD4-2 [5]) [µM],Ki (BRD4-1 [6]) [µM],EC50 [7] [µM],"CC50 at 5 days [3, 8] [µM]","CC50 at 5 days [3, 9] [µM]"
"Cc1ccc2ncccc2c1-c1cc(-c2c(C)noc2C)cc2[nH]c(=O)[nH]c12 (racemic) [Example 2, 6-(3,5-dimethylisoxazol-4-yl)-4-(6-methylquinolin-5-yl)-1H-benzo[d]imidazol-2(3H)-one]",0.135,0.119,0.0308,–,–,–,0.019,–
"Cc1noc(C)c1-c1cc(S(=O)(=O)NC2CCCC2)c2[nH]c(=O)[nH]c2c1 [Example 1, N-cyclopentyl-6-(3,5-dimethylisoxazol-4-yl)-2-oxo-2,3-dihydro-1H-benzo[d]imidazole-4-sulfonamide]",1.41,1.07,–,–,–,–,1.12,–
"Cc1noc(C)c1-c1cc(-c2c(C)noc2C)c2[nH]c(=O)[nH]c2c1 [Example 3, 4,6-bis(3,5-dimethylisoxazol-4-yl)-1H-benzo[d]imidazol-2(3H)-one]",0.295,–,0.119,–,–,–,0.196,–
"Cc1noc(C)c1-c1cc(-c2cccnc2-c2ccccc2)c2[nH]c(=O)[nH]c2c1 [Example 4, 6-(3,5-dimethylisoxazol-4-yl)-4-(2-phenylpyridin-3-yl)-1H-benzo[d]imidazol-2(3H)-one]",0.119,0.141,0.0372,–,–,–,0.103,–
Cc1cnn(C)c1-c1cc(-c2c(C)noc2C)cc2[nH]c(=O)[nH]c12 [Example 5],0.35,0.144,0.234,–,–,–,0.233,–
"Cc1noc(C)c1-c1cc(C(O)(c2ccccc2)c2ccccn2)c2[nH]c(=O)[nH]c2c1 (centres unmarked) [Example 149, 6-(3,5-dimethylisoxazol-4-yl)-4-(hydroxy(phenyl)(pyridin-2-yl)methyl)-H benzo[d]imidazol-2(3H)-one]",–,–,–,0.0046,0.0173,0.0738,–,0.0175
Cc1noc(C)c1-c1cc(C(O)(c2ccccn2)c2ccccn2)c2[nH]c(=O)[nH]c2c1F [Example 169],–,–,–,0.0335,0.062,0.128,–,0.0414

# The next lines start with results.
IC50 (BRD4-1 [1]) [µM],IC50 (BRD4-2 [2]) [µM],IC50 (BRD4-1 [4]) [µM],Ki (BRD4-2 [5]) [µM],Ki (BRD4-1 [6]) [µM],EC50 [7] [µM],Compound,"CC50 at 5 days [3, 8] [µM]","CC50 at 5 days [3, 9] [µM]"
–,–,–,0.0438,0.0352,0.217,"Cc1noc(C)c1-c1cc(C(O)(CCC(F)(F)F)c2ccccn2)c2[nH]c(=O)[nH]c2c1 (centres unmarked) [Example 140, 6-(3,5-dimethylisoxazol-4-yl)-4-(4,4,4-trifluoro-1-hydroxy-1-(pyridin-2-yl)butyl)-1H-benzo[d]imidazol-2(3H)-one]",–,0.0783
–,–,–,0.008,0.0293,0.118,"Cc1noc(C)c1-c1cc(C(O)(CC(C)(C)C)c2ccccn2)c2[nH]c(=O)[nH]c2c1 (centres unmarked) [Example 143, 6-(3,5-dimethylisoxazol-4-yl)-4-(1-hydroxy-3,3-dimethyl-1-(pyridin-2-yl)butyl)-1H-benzo[d]imidazol-2(3H)-one]",–,0.0204
–,–,–,0.016,0.0816,0.107,"Cc1cccc(C(O)(c2ccccn2)c2cc(-c3c(C)noc3C)cc3[nH]c(=O)[nH]c23)n1 (centres unmarked) [Example 147, 6-(3,5-dimethylisoxazol-4-yl)-4-(hydroxy(6-methylpyridin-2-yl)(pyridin-2-yl)methyl)-1H-benzo[d]imidazol-2(3H)-one]",–,0.0565
